Assay results reported in patent US8138119B2, “Alkoxyalkyl spirocyclic tetramic acids and tetronic acids” (Bayer Cropscience AG, priority 2005, dated 2012).
One block for each molecule: values may come before it.

What was measured:
cereal = experiment: Profiling test, herbicidal post-emergence action with safener: container trials with cereal in a greenhouse, Mefenpyr 1 day prior to herbicide application; format: in vivo; conditions: without safener
Method: Seeds of monocotyledonous and dicotyledonous weed and crop plants are placed in sandy loam soil in wood fibre pots or in plastic pots, covered with soil and cultivated in a greenhouse, during the vegetation period also outdoors outside of the greenhouse, under good growth conditions. 2-3 weeks after sowing, the test plants are treated at the one- to three-leaf stage. The test compounds, formulated as wettable powders (WP) or liquid (EC), are, in various dosages with a water application rate of 300 l/ha (converted), with wetting agent (0.2 to 0.3%) added, sprayed onto the plants and the surface of the soil. […]
(§1) If it is additionally to be tested as to whether safeners can improve the plant compatibility of test substances in the case of crop plants, the following options are used for applying the safener: • seeds of the crop plants are, before sowing, dressed with the safener substance (the amount of safener stated in percent, based on the weight of the seed) • before the application of the test substances, the proper plants are sprayed with the safener at a certain application rate per hectare (usually 1 day before the application of the test substances) • the safener is applied together with the test substance as a tank mix (the amount of safener stated in g/ha or as a ratio, based on the herbicide).
(§2) By comparing the effect of the test substances on crop plants without or with safener treatment, it is possible to assess the effect of the safener substance.

maize = experiment: Profiling test, herbicidal pre-emergence action with safener: container trials with maize in the greenhouse, Ex. II-e-5 1 day prior to herbicide application; format: in vivo; conditions: 28 days after application, without safener
Method: Seeds of monocotyledonous and dicotyledonous weed and crop plants are placed in sandy loam soil in wood fibre pots or in plastic pots and covered with soil. The pots are watered slightly, and the soil surface is then treated with various dosages of the test compounds, formulated as wettable powders (WP) or liquid (EC), at a water application rate of 300 l/ha (converted). The pots with the plants are cultivated in a greenhouse, during the vegetation period also outdoors outside of the greenhouse, under good growth conditions. 3-4 weeks after sowing and the treatment of the pots, the activity of the preparations is rated visually in comparison to untreated controls (herbicidal activity in percent (%): 100% activity=the plants have died, 0% activity=like control plants).
as §1, with “pots of crop” for “proper”
as §2

[1] = system: caterpillars of the diamondback moth (Plutella xylostella); experiment: Plutella test (PLUTMA); format: in vivo; conditions: 100 ppm, cabbage leaves dipped
Method: (§3) Solvent: 7 parts by weight of dimethylformamide
(§4) Emulsifier: 2 parts by weight of alkylaryl polyglycol ether
(§5) To produce a suitable preparation of active compound, 1 part by weight of active compound is mixed with the stated amounts of solvent and emulsifier, and the concentrate is diluted with emulsifier-containing water to the desired concentration.
Cabbage leaves (Brassica oleracea) are treated by being dipped into the active compound preparation of the desired concentration and populated with caterpillars of the diamondback moth (Plutella xylostella) while the leaves are still moist.
(§6) After the desired period of time, the kill in % is determined. 100% means that all caterpillars have been killed; 0% means that none of the caterpillars have been killed.

[2] = system: caterpillars of the armyworm (Spodoptera exigua); experiment: Spodoptera exigua test (SPODEX); format: in vivo; conditions: 100 ppm, cabbage leaves dipped
Method: as §3, §4
To produce a suitable preparation of active compound, 1 part by weight of active compound is mixed with the stated amounts of solvent and emulsifier, and the concentrate is diluted with water to the desired concentration.
Cabbage leaves (Brassica oleracea) are treated by being dipped into the active compound preparation of the desired concentration and populated with caterpillars of the armyworm (Spodoptera exigua) while the leaves are still moist.
as §6

[3] = system: caterpillars of the armyworm (Spodoptera exigua, resistant strain); experiment: Spodoptera exigua test; resistant strain (SPODEX R); format: in vivo; conditions: 100 ppm, cabbage leaves dipped
Method: as §3, §4, §5
Cabbage leaves (Brassica oleracea) are treated by being dipped into the active compound preparation of the desired concentration and populated with caterpillars of the armyworm (Spodoptera exigua, resistant strain) while the leaves are still moist.
as §6

[4] = Determination of the log P values by HPLC on a reversed-phase column (C18); format: physicochemical; conditions: HPLC reversed-phase column (C18), acidic range (pH 2.3), 43° C.
Method: The log P values given in the table were determined in accordance with EEC Directive 79/831 Annex V.A8 by HPLC (High Performance Liquid Chromatography) on a reversed-phase column (C18). Temperature: 43° C.
Mobile phases for the determination in the acidic range (pH 2.3): 0.1% aqueous phosphoric acid, acetonitrile; linear gradient from 10% acetonitrile to 90% acetonitrile
Calibration was carried out using unbranched alkan-2-ones (with 3 to 16 carbon atoms) whose log P values are known (determination of the log P values by the retention times using linear interpolation between two successive alkanones).

[5] = 28 days after application, 12.5 g of a.i./ha
[6] = 28 days after application, 25 g of a.i./ha
[7] = 28 days after application, 11 g of a.i./ha
[8] = 28 days after application, 23 g of a.i./ha
[9] = 28 days after application, 46 g of a.i./ha
[10] = 28 days after application, 91 g of a.i./ha

Structure (SMILES): CCc1cc(C)cc(Br)c1C1=C(O)C2(CCC(COC)CC2)NC1=O (single isomer, unassigned) [Example I-1-a-3]
Summer barley observed (%) (cereal; [5]): 20% | Summer barley observed (%) (cereal; [6]): 60% | Summer wheat observed (%) (cereal; 10 days after application, 12.5 g of a.i./ha): 20% | Summer wheat observed (%) (cereal; 10 days after application, 25 g of a.i./ha): 40%

Structure (SMILES): CCc1cc(Cl)cc(OC)c1C1=C(O)C2(CCC(COC)CC2)NC1=O (single isomer, unassigned) [Example I-1-a-4]
Maize - Arsenal observed (%) (maize; 12.5 g of a.i./ha): 40% | Maize - Arsenal observed (%) (maize; 25 g of a.i./ha): 65% | Summer barley observed (%) (cereal; [6]): 50%

Structure (SMILES): COCC1CCC2(CC1)NC(=O)C(c1cc(-c3ccc(Cl)cc3)ccc1C)=C2O (single isomer, unassigned) [Example I-1-a-5]
efficacy (kill of caterpillars) [1]: ≥ 80% | efficacy (kill of caterpillars) [2]: ≥ 80% | efficacy (kill of caterpillars) [3]: ≥ 80%

Structure (SMILES): CCc1cc(C)cc(Br)c1C1=C(O)C2(CCCC(COC)C2)NC1=O (single isomer, unassigned) [Example I-1-a-8]
Summer wheat observed (%) (cereal; [5]): 90% | Summer wheat observed (%) (cereal; [6]): 95%

Structure (SMILES): CCCOCC1CCCC2(C1)NC(=O)C(c1c(Br)cc(C)cc1CC)=C2O (single isomer, unassigned) [Example I-1-a-12]
Summer barley observed (%) (cereal; [7]): 10% | Summer barley observed (%) (cereal; [8]): 20% | Summer barley observed (%) (cereal; [9]): 30% | Summer barley observed (%) (cereal; [10]): 60% | Summer wheat observed (%) (cereal; [7]): 10% | Summer wheat observed (%) (cereal; [8]): 15% | Summer wheat observed (%) (cereal; [9]): 20% | Summer wheat observed (%) (cereal; [10]): 30%

Structure (SMILES): CCc1cc(Cl)cc(OC)c1C1=C(OC(=O)COC)C2(CCCC(COC)C2)NC1=O (single isomer, unassigned) [Example I-1-b-6]
Summer barley observed (%) (cereal; [5]): 70%

Structure (SMILES): CCOC(=O)OC1=C(c2c(Br)cc(C)cc2CC)C(=O)NC12CCC(COC)CC2 (single isomer, unassigned) [Example I-1-c-6]
Maize - Cecilia observed (%) (maize; 12.5 g of a.i./ha): 60%

Structure (SMILES): CCOC(=O)OC1=C(c2c(CC)cc(Cl)cc2OC)C(=O)NC12CCC(COC)CC2 (single isomer, unassigned) [Example I-1-c-7]
Maize - Arsenal observed (%) (maize; 25 g of a.i./ha): 60%

Structure (SMILES): CCOC(=O)OC1=C(c2c(C)cc(C)cc2C)C(=O)NC12CCCC(COC)C2 (single isomer, unassigned) [Example I-1-c-9]
Maize - Cecilia observed (%) (maize; 100 g of a.i./ha): 50%

log P ([4]; cis/trans isomer mixture): 5.13 | chromatographic logP ([4]; reversed-phase HPLC column (C18), pH 2.3, cis/trans isomer mixture): 5.01
Structure (SMILES): CCOC(=O)C1(OC(=O)Cc2c(C)cc(C)cc2C)CCC(CCOC)CC1 (centres unmarked) [III-1]
